Data published in paper PMC5838219 (2018).

How the values were obtained:
[1] = test system: dGsw^121 (RNA, riboswitch) AAUGAAUAUAAAAGAAACUUAUACAGGGUAGCAUAAUGGGCUACUGACCCCGCCUUCAAACCUAUUUGGAGACUAUAAGUGAAAAACCACUCUUUAAUUAUUAAAGUUUCUUUUUAUGUC; experiment: NMR (1H,15N-TROSY, imino protons); details: 50 mM KCl, 25 mM K phosphate, 6 eq. Mg2+; pH 6.2, 298 K; 100 µM RNA, 2 eq. ligand; after photolysis; antiterminator folds only to ~80%
[2] = test system: dGsw^121,caged (RNA, riboswitch, (S)-NPE photocage at C4 position of nucleobases of U108, U110 and U112) AAUGAAUAUAAAAGAAACUUAUACAGGGUAGCAUAAUGGGCUACUGACCCCGCCUUCAAACCUAUUUGGAGACUAUAAGUGAAAAACCACUCUUUAAUUAUUAAAGUUUCUUUUUAUGUC; experiment: NMR (1H,15N-TROSY, imino protons); details: 50 mM KCl, 25 mM K phosphate, 6 eq. Mg2+; pH 6.2, 298 K; 100 µM RNA, 2 eq. ligand; before photolysis

## Nc1nc2c(ncn2[C@H]2C[C@H](O)[C@@H](CO)O2)c(=O)[nH]1
[1]
  binding: yes
[2]
  binding: yes
